Measurements as given in paper PMC11583597, “Brain uptake pharmacokinetics of albiglutide, dulaglutide, tirzepatide, and DA5-CH in the search for new treatments of Alzheimer’s and Parkinson’s diseases” (Tissue Barriers, 2023).
Where two headings read alike, the source gives them in different places. Marks after values point to notes of the source that are not given here.

How the values were obtained:
[1] = Octanol/buffer partition coefficient (lipid solubility); format: physicochemical
Procedure: We measured the lipid solubility of the IRAs, using octanol and PB. Briefly, 1 × 10^5 counts per minute (cpm) of each ^125I/^14C-IRA were added to triplicate tubes containing equal volumes PB and octanol (Sigma-Aldrich). This solution was vigorously mixed for 1 min and centrifuged at 5500 ×g for 10 min to separate the two phases. Aliquots of 100 μl were taken in duplicate from each phase, and total radioactivity was counted in a gamma counter (Wizard2, Perkin-Elmer) or beta counter (TriCarb 3110TR, Perkin-Elmer). The ratio of the cpm in the octanol phase to the cpm in the buffer phase equates to the mean partition coefficient (Pcoeff) and indicates lipophilicity. The log value for the coefficient can be either greater than unity, indicative of a lipophilic compound, or less than unity, indicative of a hydrophilic compound.

[2] = In vivo stability of 125I/14C-IRAs in brain (acid precipitation); parameters: species or system male CD-1 mice; details: mouse, iv
Procedure: (§1) We measured the stability of the radiolabeled IRAs in brain and blood. Following anesthetization, arterial blood and whole brain were taken at two time points (10 or 60 min) after iv injection of 3 × 10^5 cpm-1×10^6 cpm of ^125I/^14C-IRA in 0.2 ml of BSA/LR. The blood samples were allowed to clot, centrifuged at 3200 ×g for 10 min, and 50 μl of the separated serum was added to 250 μl of BSA-LR. Samples were combined with equal volume 30% TCA (300 μl), mixed, and then centrifuged for 10 min at 5400 ×g. Brains were homogenized in 800 μl of BSA-LR with a bead beater for 30 sec at 4800 rpm twice. Following centrifugation at 5400 ×g for 15 min, a portion of the resulting supernatant was added to an equal volume of 30% TCA, mixed, and then centrifuged at 5400 ×g for 10 min. The radioactivity in the resulting supernatant and pellet (Sup and Pel fractions) for serum and brain was calculated separately, and the percent of radioactivity in the precipitate was calculated using the following equation:(1) %AcidPrecip=100×Pel/Sup+Pel
(§2) To correct for degradation that might have occurred during the processing, ^125I/^14C-IRA was added to non-radioactive arterial whole blood or to whole brain and processed as above. The biological samples were corrected for degradation during processing by dividing their values by those for processing control (Pcon) values and multiplying by 100. This can sometimes result in a value greater than 100%.
(§3) Immediately after counting the radioactivity, the blood and brains from the 10 min and 6 h time points were processed as described in Section 2.5 for in vivo stability. For further comparison, data from the 1 h time point were taken from the original pharmacokinetic uptake study. The ^125I-IRA brain % acid precipitation (%AP) was divided by the ^125I-IRA serum %AP at each time point to calculate the %AP B/S ratio. This value was multiplied by the B/S ratio for each ^125I-IRA to correct for degradation over the 10 min, 1 h, or 6 h time periods. Corrected AP B/S ratios were then corrected for vascular space by subtracting the ^99mTc-Alb B/S ratio within each mouse for the 10 min and 6 h time points (AP corrected delta B/S ratio). For the 1 h time point, the average ^99mTc-Alb B/S ratio (10.03 μl/g) at 10 min across all ^125I-IRAs was used for correction. The AP corrected delta B/S ratio for each ^125I-IRA was then multiplied by the %Inj/ml within each mouse to calculate the AP corrected delta %Inj/g.

[3] = In vivo stability of 125I/14C-IRAs in blood/serum (acid precipitation); parameters: species or system male CD-1 mice; details: mouse, iv
Procedure: as §1, §2, §3

[4] = parameters: species or system male CD-1 mice; details: mouse, in vivo, iv
Procedure: (§4) Following anesthetization, the jugular vein and right carotid artery were exposed. Mice were given a jugular vein injection of 0.2 ml BSA-LR containing 3 × 10^5 cpm-1×10^6 cpm of an ^125I/^14C-labeled IRA and 5 × 10^5 cpm of ^99mTc-Alb. Blood samples were collected from the carotid artery at various time points from 1 to 60 min after iv injection (see Figure 1). Mice were then decapitated, and their brains were removed and weighed. After clotting, the arterial blood was centrifuged at 3200 ×g for 10 min. Levels of radioactivity in serum (50 μl) and brain were measured in a gamma counter for ^125I and ^99mTc for 3 min. After ^99mTc decay, ^14C-DA5-CH samples were solubilized with Solvable (Sigma), transferred to scintillation vials containing Ecoscint (National Diagnostics) and ^14C was measured in a beta counter. Sample injection checks were taken throughout the course of the study to calculate the mean injected cpm/mouse. To determine the rate of ^125I/^14C-IRA clearance from the serum, the results were expressed as the percentage of an injected dose in each ml of serum (%Inj/ml), which was calculated by dividing the cpm in a ml of serum (cpm/ml serum) by the cpm injected into the mouse (cpm/Inj):
(2) %Inj/ml=100×cpm/mlserum/meancpm/Inj
The log(%Inj/ml) was plotted against time to calculate the rate of clearance from the serum. To calculate the half-time clearance in minutes, the inverse slope […] of the curve for each IRA was multiplied by 0.301 (log10[2]). The blood and brain cpm data were used for the measurement of brain influx and initial volume of distribution in brain as described in Section 2.7.

[5] = Brain influx and initial volume of distribution (multiple-time regression analysis); parameters: species or system male CD-1 mice; details: mouse, in vivo; for Blood to Brain Unidirectional Influx Rate (Ki): iv
Procedure: as §4
To calculate the blood-to-brain unidirectional influx constant (Ki), multiple-time regression analysis was used as first described by Patlak, Blasberg, and Fenstermacher.[67],[68] The brain/serum (B/S) ratios (μl/g) of the ^125I/^14C-IRA in each gram of brain were calculated from the data in Section 2.6 and plotted against their respective exposure times as previously applied by Rhea et al. 2018.[69] Exposure time differs from clock time in that exposure time corrects for clearance of the ^125I/^14C-IRA from blood and thus, better represents the amount of ^125I/^14C-IRA available for BBB transport at any given time. Delta B/S ratios were calculated by subtracting the vascular space as measured by the B/S ratio for ^99mTc-Alb from the B/S ratio for the respective ^125I/^14C-IRA. Thus, delta B/S ratios represent material that has been taken up by or has crossed the BBB. The slope of the linear portion of the relation between delta B/S ratios and exposure time defines Ki (μl/g-min) and is reported with its error term. This represents Model 1 for DA5-CH. The y-intercept of this linear portion of the relation defines Vi, (μl/g), the initial volume of distribution in brain at t = 0, which is the functional volume per unit brain mass of a soluble compound that exchanges rapidly and reversibly with plasma.[68] Vi consists of the vascular space (Vv) and any residual space after accounting for Vv and usually represents vascular binding (Vr). Since we correct each ^125I/^14C-IRA delta B/S for vascular space, our y-intercept values likely represent vascular binding. For DA5-CH, there appeared to be rapid, early transport that would indicate a Vr equal to 0. Therefore, using Vr equal to 0, we calculated an estimate of this new Ki and refer to it throughout the manuscript as Model 2.

[6] = parameters: species or system male CD-1 mice; details: mouse, in vivo, iv; remark: listed apart in the source
Source text: This value is then multiplied by the %Inj/ml of each ^125I/^14C-IRA at each time point. After plotting the %Inj/g at each time point for each IRA, we calculated the area under the curve (AUC) to better identify the amount of brain exposure to each IRA over the entire time course.

[7] = parameters: species or system male CD-1 mice; details: mouse, in vivo, iv; remark: listed apart in the source
Procedure: Anesthetized mice were co-injected iv with 3 × 10^5 cpm-1×10^6 cpm ^125I/^14C-IRA and 5 × 10^5 cpm of ^99mTc-Alb in 0.2 ml BSA-LR with or without 1 μg of the non-radioactive IRA. Fifteen minutes after iv injection, blood was collected from the right carotid artery, and the whole brain was removed and weighed. Samples were counted for radioactivity. Results were expressed as delta B/S ratios in units of μl/g.

[8] = mouse, in vivo, iv
Procedure: The capillary depletion method was used to separate cerebral capillaries from brain parenchyma. Anesthetized mice received an iv injection of 3 × 10^5-1×10^6 cpm of an ^125I-IRA with 5 × 10^5 cpm ^99mTc-Alb BSA-LR and 15 min later, blood and brains were collected. Whole brains were homogenized with physiological buffer (10 mM HEPES, 141 mM NaCl, 4 mM KCl, 2.8 mM CaCl2, 1 mM MgSO4, 1 mM NaH2PO4, and 10 mM D-glucose adjusted to pH 7.4) using two different sized glass dounce homogenizers, mixed with 26% dextran (Sigma-Aldrich), and centrifuged at 5400 ×g for 15 min at 4°C.[69] The pellet, containing the capillaries, and the supernatant, containing the brain parenchymal/interstitial fluid space, were carefully separated. The ratio of ^125I-IRA radioactivity in the supernatant (parenchyma) was corrected for vascular space by subtracting the B/S ratio of ^99mTc-Alb in the supernatant. The corrected parenchyma/serum and capillary/serum ratios (μl/g) were calculated as (cpm/g tissue)/(cpm/μl) serum.

[9] = mouse, in vivo; cited from earlier work
Procedure: The rank order of IRAs showing significant brain uptake 1 h after iv injection with respect to AUCs is similar, but not identical to the rank order of their Ki’s (see Figures 5b and 3b). Less similar is the rank order of IRAs for uptake into brain parenchyma defined as the percent reaching the brain that was in its parenchyma vs. its capillaries. The rank order of parenchymal uptake was specifically DA4-JC (89.7%) = albiglutide (BAF) (89.4%) > DA3-CH (86%) > exenatide (84.2%) > Peptide 17 (73.2%) > lixisenatide (66.8%) > dulaglutide (BAF) (61.8%) > DA5-CH (57.6%) > Peptide 21 (43.6%) > liraglu ...

[10] = mouse, in vivo, iv; cited from earlier work
Source text: The unidirectional blood-to-brain influx rate (Ki) calculated from Figure 2c for all four IRAs tested is graphed with previously calculated Ki’s for other IRAs[50] in Figure 3 by rank.

[11] = mouse, in vivo, iv; cited from earlier work; remark: listed apart in the source

Substance	Lipid Solubility Partition Coefficient ([1]; pH 7.5)	Log Partition Coefficient (Log P) ([1]; pH 7.5)	Percentage of labeled IRA intact, Whole Brain, 10 min [2] [%]	Percentage of labeled IRA intact, Whole Brain, 60 min [2] [%]	Percentage of labeled IRA intact, Serum, 10 min [3] [%]	Percentage of labeled IRA intact, Serum, 60 min [3]	Half-Time Serum Clearance (t1/2) [4] [min]	Blood to Brain Unidirectional Influx Rate (Ki) [5] [µL/g/min]	Percent of injected dose taken up per gram brain (%Inj/g), 10 min [6] [%Inj/g]	Percent of injected dose taken up per gram brain (%Inj/g), 60 min [6] [%Inj/g]	Whole Brain delta brain/serum ratio, Without unlabeled IRA [7] [µL/g]	Percent in Parenchyma vs. Capillaries [8] [%]	Percent of injected dose taken up per gram brain (%Inj/g), 15 min [6] [%Inj/g]	Log Partition Coefficient (Log P) ([1]; shake-flask octanol / sodium phosphate buffer pH 7.5 (PB), radiolabelled IRA, gamma or beta counting, mean ± SE, triplicate tubes)	Probable Ki of DA5-CH [5] [µL/g/min]	Probable Vr of DA5-CH [5] [µL/g]	Percent reaching the brain that was in parenchyma vs. capillaries [9] [%]	Blood to Brain Unidirectional Influx Rate (Ki) [10] [µL/g/min]	%Inj/g by 60 min [11] [%Inj/g]
HGEGTFTSDVSSYLEEQAAKEFIAWLVKGGG [Dulaglutide (BAF)]	0.0102 ± 0.0007	-1.991 ± 0.0287	58.42 ± 0.3	37.47 ± 4.1	84.67 ± 0.8	39.1 ± 1.4^a %	6.02	1.095 ± 0.072	0.20	0.33	17.86 ± 0.99	61.8							
HGEGTFTSDVSSYLEGQAAKEFIAWLVKGR [Albiglutide (BAF)]	0.0132 ± 0.0040	-1.916 ± 0.121	43.35 ± 2.9	40.9 ± 9.3	53.96 ± 0.4	20.71 ± 1.3^a %	6.14	1.379 ± 0.086			39.3 ± 1.50	89.4	0.36						
YXEGTFTSDYSIYLDKQAAXEFVNWLLAGGPSSGAPPPSKRRQRRKKRGY-NH2 [DA5-CH]			79.7 ± 12.9	77.61 ± 22.3	83.83 ± 4.9	49.35 ± 2.5^a %	2.03	0.242 ± 0.128			26.25 ± 8.07	57.6		-2.183 ± 0.0281	0.24 to 2.5	0 to 11.2			
exenatide: FDA-approved IRA tested in the earlier study (ref 50)																	84.2	0.4231	0.56
